Patent publication EP0417790B1, “S-triazolo[3,4-i]purine derivatives” (Kyowa Hakko Kogyo Co., Ltd., priority 1989, dated 1991)
Where two headings read alike, the source gives them in different places.

Legend:
[1] = test system: male dd mice; assay: Inhibition of platelet activating factor (PAF)-induced mortality; format: in vivo; conditions: Mus musculus, minimum effective dose, oral, 1 hour before 40 µg/kg PAF i.v., mortality 2 hours after PAF, read-out: PAF-induced mortality MED
Description: The experiment was performed by a minor modification of method of Carlson et al. [Agents and Actions, 21, 379 (1987)]. Groups each consisting of 10 male dd mice (weighing 28 to 32 g) were used, and 100 mg/kg of test compound or a saline (control) was orally administrated. One hour after the administration of test compound, 40 µg/kg of PAF (manufactured by Avanti Polar Lipids Co., Ltd.) was intravenously administered. Two hours after PAF injection, the mortality rate of the animals was observed. […]

[2] = test system: male dd-mice; assay: Acute toxicity; format: in vivo; conditions: Minimum lethal dose, oral, mortality observed for seven days
Description: The compounds were orally administrated to male dd-mice weighing 20 ± 1 g. Minimum lethal dose (MLD) was determined by observing the mortality for seven days after the administration.

[3] = test system: Hartley male guinea pigs; assay: Experimental asthma (collapse time after antigen aerosol); format: in vivo; conditions: 1 hour before 1.5% EWA aerosol, n=3-10 mean±S.E.M., control 254 ± 18
Description: Guinea pigs were passively sensitized as follows. Hartley male guinea pigs weighing 350 to 500 g were intraperitoneally injected with 1 ml of rabbit anti-egg alubmin (EWA) serum prepared by the method of Koda et al. [Folia pharmacol., Japon, 66, 237 (1970)]. The animals were treated with intraperitoneal injection of diphenhydramine (20 mg/kg) and propranolol (5 mg/kg), 30 minutes before administration of test compounds. 17 hours after the sensitization, the test compounds (50 mg/kg or 5 mg/kg) or saline (control) were orally administrated to sensitized animals. After one hour from the administration of the test compounds, the guinea pigs were placed in plastic observation box and were exposed to an aerosal antigen of 1.5% EWA.
The time until the onset of respiratory distress-like symptom [collapse time (second)] was measured as a result of experimental asthma.

[4] = test system: Wistar male rats; assay: Diuretic activity; format: in vivo; conditions: Rattus norvegicus, po, 25 mg/kg orally, urine taken for 6 hours
Description: Wistar male rats weighing 150 to 300 g were used after fasting for 18 hours. […] The test was performed using 3 groups per test compound, and each group consists of 3 animals. The urine was metered by a measuring cylinder and electrolytes (Na^+ and K^+) in the urine were analyzed by flame photometer (model […]: Hitachi Ltd.). Parameters in Table 3 are represented by relative value for control.

[5] = test system: trachea; assay: Passive Schultz-Dale reaction (broncho-dilatory effect) on isolated tracheal strips; conditions: Cavia porcellus; 50% relaxation of antigen (EWA, 1 µg/ml)-contracted tracheal strips of passively sensitized guinea pigs
Description: Guinea pigs were passively sensitized as follows. Hartley male guinea pigs weighing 350 to 500 g were injected intraperitoneally with rabbit anti-egg albumin (EWA) serum prepared by the method of Koda et al. [Folia pharmacol., Japon 66, 237, (1970)]. After 24 hours, the guinea pigs were stunned and exsanguinated, and then trachea was excised. The zig-zag strips of the trachea were prepared by the method of Emmerson and Mackay [J. Pharm. Pharmacol., 31, 798, (1979)]. The strips were suspended in Krebs-Henseleit solution at 37°C under aeration of a mixed gas of 95% oxygen and 5% carbon dioxide, and incubated for one hour. Antigen (EWA) was then introduced in the solution (final concentration; 1 µg/ml), and the contraction was measured by isotonictransducer (TD-112s, made by Nihon Kohden K.K., Japan) and recorded on a recorder (Type 3066, made by Yokogawa-Hokushin Denki, K.K. Japan). After the contraction curves reached plateau the compounds were successively added in order to get cumulative concentration-relaxation curves. Concentration of 50% relaxation rate (IC50) was calculated from the regression line, which was obtained from cumulative concentration-relaxation curves.

[6] = test system: mice; assay: Scopolamine-induced amnesia, step through passive avoidance; format: in vivo; conditions: scopolamine 0.5 mg/kg i.p., mean ± S.E.M., controls 40.9±8.1 (Compound 41), 37.0±6.2 (Compound 51)
Description: Acquisition trial was performed in a manner similar to Experiment (f). Amnestic treatment was performed by intraperitoneal administration of scopolamine (0.5 mg/kg), 30 minutes prior to the acquisition trial. The test trial was performed 24 hours after the acquisition trial and its latency was determined as in Experiment (f).
Preparation of administrated test compound was performed in a manner similar to Experiment (f). Test compound and the saline were orally administered 60 minutes before the acquisition trial, respectively.

[7] = test system: Male ddy mice; assay: Electroconvulsive shock (ECS)-induced amnesia, step through passive avoidance; format: in vivo; conditions: mean ± S.E.M., control 70.9±13.5
Description: Male ddy mice (weighing 23 to 29 g) were used and each group consists of 14 to 15 animals. These tests were performed with a step through type passive avoidance apparatus. As experimental apparatus, two rooms (bright and dark) with automatic management system were used. An experimental apparatus is composed of a bright room equipped with 4W of fluorescent light (15 x 9 x 11 cm) and a dark room (15 x 14 x 18 cm), the two rooms are separated by a guillotine door of 3 x 3 cm. The floor of both rooms is stainless steal grid floor and the weak electric current can be send the grid floor of dark room. In the automatic management system, latency of acquisition trial and test trial are measured automatically by controlling with a controller (TK-402, by UNICOM, Japan).
The test compound was dissolved in saline and saline was used as a control. The test compound and the saline (control) were orally administered 60 minutes before the acquisition trial, respectively.
Acquisition trial for learning was performed as follows. […] As soon as the mouse entered the dark room, a scrambled foot-shock (0.18 mA) was delivered to the floor grid for 2 seconds. In the test trial, given 24 hours after the acquisition trial, the animal was again placed in the bright room and the response latency to enter the dark room was measured. The mice which required over 60 seconds to move from the bright room into the dark room were excluded from the test trial. Immediately after the acquisition trial, electric convulsive shock (ECS) (25 mA, 0.2 second, 2000 V) was loaded on mice. The test trial was performed 24 hours after the ECS treatment as follows. The mice received the acquisition trial were placed in the bright room and, latency from the door opening to the entrance of the whole body of animal into the dark room was measured. The maximum measurement time was 600 seconds and latency exceeding 600 seconds was recorded as 600 seconds.
Statistical significance between the control group and test compound treated group was judged by Man Whitney U-test.

[8] = relative value for control (1.00), read-out: Na^+/K^+
[9] = relative value for control (100), read-out: Excretion of K^+
[10] = relative value for control (100), read-out: Excretion of Na^+
[11] = relative value for control (100), read-out: Urine volume
[12] = 0.625 mg/kg orally 60 minutes before acquisition trial
[13] = 2.5 mg/kg orally 60 minutes before acquisition trial
[14] = 10 mg/kg orally 60 minutes before acquisition trial
[15] = 40 mg/kg orally 60 minutes before acquisition trial

Row | Compound | minimal effective dose [1] [mg/kg] | MLD [2] [mg/kg] | Experimental asthma Collapse time ([3]; 5 mg/kg orally) [s] | response vs control in vivo at 25 mg/kg [4, 8] [%] | response vs control in vivo at 25 mg/kg [4, 9] [%] | response vs control in vivo at 25 mg/kg [4, 10] [%] | response vs control in vivo at 25 mg/kg [4, 11] [%] | IC50 [5] [µM] | Latency of test trial [6, 12] [s] | Latency of test trial [6, 13] [s] | Latency of test trial [6, 14] [s] | Latency of test trial [6, 15] [s] | Latency of test trial [7, 12] [s] | Latency of test trial [7, 13] [s] | Latency of test trial [7, 14] [s] | Latency of test trial [7, 15] [s] | Experimental asthma Collapse time ([3]; 50 mg/kg orally) [s]
1 | CCCn1c(=O)n2c(-c3ccc(Cl)cc3)nnc2c2c1ncn2C [Compound 12, 3-(4-Chlorophenyl)-6,9-dihydro-9-methyl-6-n-propyl-5H-1,2,4-triazolo[3,4-i]purin-5-one] | 100 | >300 | 399 ± 55 | 142 | 129 | 183 | 198 | 26 |  |  |  |  |  |  |  |  | 
2 | CCCn1c(=O)n2c(=O)[nH]nc2c2c1ncn2C [Compound 41, 9-Methyl-6-n-propyl-2,5,6,9-tetrahydro-3H-1,2,4-triazolo[3,4-i]purin-3,5-dione] |  | >300 |  |  |  |  |  |  | 96.8 ± 21.5 | 115.8 ± 26.6 | 53.4 ± 8.9 | 74.3 ± 18.8 | 105.9 ± 44.0 | 111.3 ± 20.1 | 97.4 ± 38.7 | 171.8 ± 43.1 | 
3 | CCCn1c(=O)n2c(-c3ccncc3)nnc2c2[nH]cnc21 [Compound 31, 6,9-Dihydro-6-n-propyl-3-(4-pyridyl)-5H-1,2,4-triazolo[3,4-i]purin-5-one] | 25 | >300 |  | 166 | 118 | 196 | 191 | 11 |  |  |  |  |  |  |  |  | 512 ± 52
